Test results taken from patent US11932589B2, “Hydrofluoroolefins and methods of using same” (3M INNOVATIVE PROPERTIES COMPANY, priority 2019, dated 2024).

How the values were obtained:
Assay type in all cases: physicochemical
[1] = Largest Soluble Hydrocarbon (LSH) test; details: hydrofluoroolefin:hydrocarbon about 1:1 to 1:2 by weight, longest hydrocarbon compatible without haze
Procedure: Largest Soluble Hydrocarbon (LSH): The LSH of each hydrofluoroolefin compound was determined by mixing the compound with hydrocarbons of varying molecular weight (CnH2n+2, where n=9 to 24) in a hydrofluoroolefin:hydrocarbon ratio of about 1:1 to 1:2 by weight at room temperature (25° C.) and at 50° C. […] A larger value of n is interpreted herein to indicate a greater ability of the hydrofluoroolefin to clean hydrocarbons.

[2] = Open pan exposure to direct flame
[3] = Flash point, small scale closed-cup apparatus (ASTM D-3278-96 e-1); details: closed-cup ASTM method; no flash point = non-flammable
Description: The acetate was thermally decomposed and the title product separated by fractional distillation. The structure was verified by GC-MS and NMR.

Row | SMILES | LSH (n in CnH2n+2) ([1]; 25° C.) | LSH (n in CnH2n+2) ([1]; 50° C.) | Burning in an open pan upon exposure to direct flame [2] | Flash point [3]
1 | C=C(C)C1C(F)C(F)(F)C(F)(F)C1(F)F (stereo not drawn) [Example 4, 1,1,2,2,3,3,4-heptafluoro-5-isopropenyl-cyclopentane] | 17 | 21 | not observed to burn | 
2 | C=CC(F)(C(F)C(F)(F)F)C(F)(F)F (stereo not drawn) [Example 1, 3,4,5,5,5-pentafluoro-3-(trifluoromethyl)pent-1-ene] | 13 | 14 |  | no flash point
